# Source: US6355799B1, “Substituted benzene compounds, process for their preparation, and herbicidal and defoliant compositions containing them” (ISK Americas Incorporated, priority 1997, dated 2002)
# Tests used:
# Assay type in all cases: in vivo
# [1] = system: field corn (Zea mays L., var. Dekalb 535, CORN); assay: Post-emerge test, crop safety; conditions: post-emerge, 14 days after application, rating scale 0-100
# Outline: (§1)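 Applied at 15–1000 g ai/ha from acetone in 187 l/ha spray volume. Post-emergence applications included 0.25% v/v non-ionic surfactant and reached plants sown 8–21 days before. Pre-emergence applications were incorporated by surface watering. Efficacy or crop damage was rated on a 0–100 scale after 14 days.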
# [2] = system: upland rice (Oryza sp., var. Tebonnet, RICE); assay: Post-emerge test, crop safety; conditions: post-emerge, 14 days after application, rating scale 0-100
# Outline: as §1
# [3] = system: green foxtail (Setaria viridis, SETVI); assay: Pre-emerge test, greenhouse herbicide activity screening; conditions: rated 14 days after application, 0 = no damage, 100 = complete death
# Outline: as §1
# [4] = system: barnyardgrass (Echinochloa crus-galli, ECHCG); assay: as above; conditions: rated 14 days after application, 0 = no damage, 100 = complete death
# Outline: as §1
# [5] = system: sicklepod (Cassia obtusifolia, CASOB); assay: as above; conditions: rated 14 days after application, 0 = no damage, 100 = complete death
# Outline: as §1
# [6] = system: lambsquarters (Chenopodium album, CHEAL); assay: as above; conditions: rated 14 days after application, 0 = no damage, 100 = complete death
# Outline: as §1
# [7] = system: large crabgrass (Digitaria sanguinalis, DIGSA); assay: as above; conditions: rated 14 days after application, 0 = no damage, 100 = complete death
# Outline: as §1
# [8] = system: johnsongrass (Sorghum halepense, SORHA); assay: as above; conditions: rated 14 days after application, 0 = no damage, 100 = complete death
# Outline: as §1
# [9] = system: common ragweed (Ambrosia artemisizfolia L., AMBEL); assay: as above; conditions: rated 14 days after application, 0 = no damage, 100 = complete death
# Outline: as §1
# [10] = system: velvetleaf (Abutilon theophrasti, ABUTH); assay: as above; conditions: rated 14 days after application, 0 = no damage, 100 = complete death
# Outline: as §1
# [11] = system: ivyleaf morningglory (Ipomoea hederacea, IPOHE); assay: as above; conditions: rated 14 days after application, 0 = no damage, 100 = complete death
# Outline: as §1
# [12] = system: field corn (Zea mays L., var. Dekalb 535, CORN); assay: Pre-emerge test, crop safety; conditions: rated 14 days after application, 0 = no damage, 100 = complete death
# Outline: (§2)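 Plants grown in 10 cm pots of sandy loam mix received acetone-dissolved compounds through a moving flat-fan nozzle. Doses ranged from 15 to 1000 g ai/ha. Pre-emerge pots were seeded one day earlier, post-emerge pots 8–21 days earlier. Fourteen days on, each pot was graded 0–100 for damage.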
# [13] = system: upland rice (Oryza sp., var. Tebonnet, RICE); assay: Pre-emerge test, crop safety; conditions: rated 14 days after application, 0 = no damage, 100 = complete death
# Outline: as §2
# [14] = system: green foxtail (Setaria viridis, SETVI); assay: Post-emerge test, greenhouse herbicide activity screening; conditions: post-emerge, 14 days after application, rating scale 0-100
# Outline: (§3)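 Compounds in acetone were track-sprayed at 15-1000 g ai/ha (187 l/ha) on sandy loam pots: pre-emerge one day after seeding, post-emerge at 2-3 leaf stage with 0.25% v/v non-ionic surfactant. Phytotoxicity was rated 14 days later on a 0 (no damage) to 100 (complete death) scale.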
# [15] = system: barnyardgrass (Echinochloa crus-galli, ECHCG); assay: as above; conditions: post-emerge, 14 days after application, rating scale 0-100
# Outline: as §3
# [16] = system: sicklepod (Cassia obtusifolia, CASOB); assay: as above; conditions: post-emerge, 14 days after application, rating scale 0-100
# Outline: as §3
# [17] = system: redroot pigweed (Amaranthus retroflexus, AMARE); assay: as above; conditions: post-emerge, 14 days after application, rating scale 0-100
# Outline: as §3
# [18] = system: lambsquarters (Chenopodium album, CHEAL); assay: as above; conditions: post-emerge, 14 days after application, rating scale 0-100
# Outline: as §3
# [19] = system: large crabgrass (Digitaria sanguinalis, DIGSA); assay: as above; conditions: post-emerge, 14 days after application, rating scale 0-100
# Outline: as §3
# [20] = system: johnsongrass (Sorghum halepense, SORHA); assay: as above; conditions: post-emerge, 14 days after application, rating scale 0-100
# Outline: as §3
# [21] = system: common ragweed (Ambrosia artemisizfolia L., AMBEL); assay: as above; conditions: post-emerge, 14 days after application, rating scale 0-100
# Outline: as §3
# [22] = system: velvetleaf (Abutilon theophrasti, ABUTH); assay: as above; conditions: post-emerge, 14 days after application, rating scale 0-100
# Outline: as §3
# [23] = system: ivyleaf morningglory (Ipomoea hederacea, IPOHE); assay: as above; conditions: post-emerge, 14 days after application, rating scale 0-100
# Outline: as §3
# [24] = system: redroot pigweed (Amaranthus retroflexus, AMARE); assay: Pre-emerge test, greenhouse herbicide activity screening; conditions: rated 14 days after application, 0 = no damage, 100 = complete death
# Outline: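 Visual ratings on a 0-100 scale (0 no damage, 100 all plants dead) were taken at 14 days after treatment. Rates of 15-1000 g ai/ha in acetone, 187 l/ha, were sprayed onto soil one day after planting (pre-emerge) or onto 2-3 leaf plants with 0.25% v/v surfactant (post-emerge).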
smiles,measurement,setting,value
"COc1c(Cl)cc(F)c(-n2c(=O)cc(C(F)(F)F)n(C)c2=O)c1NC(=O)c1ccc(F)cc1F [Compound 2-42, 3-[4-chloro-2-(2,4difluorobenzoyl)amino-6-fluoro-3-methoxyphenyl]-1-methyl-6-trifluoromethyl-2,4(1H 3H)-pyrimidinedione]",phytotoxicity rating CORN,[1]; 63 g ai/ha,10
same,phytotoxicity rating CORN,[1]; 250 g ai/ha,60
same,phytotoxicity rating RICE,[2]; 63 g ai/ha,60
same,phytotoxicity rating RICE,[2]; 250 g ai/ha,90
same,"Pre-emerge Herbicidal Activity, phytotoxicity rating (0-100), SETVI",[3]; 63 g ai/ha,100
same,"Pre-emerge Herbicidal Activity, phytotoxicity rating (0-100), SETVI",[3]; 250 g ai/ha,100
same,"Pre-emerge Herbicidal Activity, phytotoxicity rating (0-100), ECHCG",[4]; 63 g ai/ha,100
same,"Pre-emerge Herbicidal Activity, phytotoxicity rating (0-100), ECHCG",[4]; 250 g ai/ha,100
same,"Pre-emerge Herbicidal Activity, phytotoxicity rating (0-100), CASOB",[5]; 63 g ai/ha,80
same,"Pre-emerge Herbicidal Activity, phytotoxicity rating (0-100), CASOB",[5]; 250 g ai/ha,100
same,"Pre-emerge Herbicidal Activity, phytotoxicity rating (0-100), CHEAL",[6]; 63 g ai/ha,100
same,"Pre-emerge Herbicidal Activity, phytotoxicity rating (0-100), CHEAL",[6]; 250 g ai/ha,100
same,"Pre-emerge Herbicidal Activity, phytotoxicity rating (0-100), DIGSA",[7]; 63 g ai/ha,100
same,"Pre-emerge Herbicidal Activity, phytotoxicity rating (0-100), DIGSA",[7]; 250 g ai/ha,100
same,"Pre-emerge Herbicidal Activity, phytotoxicity rating (0-100), SORHA",[8]; 63 g ai/ha,95
same,"Pre-emerge Herbicidal Activity, phytotoxicity rating (0-100), SORHA",[8]; 250 g ai/ha,100
same,"Pre-emerge Herbicidal Activity, phytotoxicity rating (0-100), AMBEL",[9]; 63 g ai/ha,100
same,"Pre-emerge Herbicidal Activity, phytotoxicity rating (0-100), AMBEL",[9]; 250 g ai/ha,100
same,"Pre-emerge Herbicidal Activity, phytotoxicity rating (0-100), ABUTH",[10]; 63 g ai/ha,100
same,"Pre-emerge Herbicidal Activity, phytotoxicity rating (0-100), ABUTH",[10]; 250 g ai/ha,100
same,"Pre-emerge Herbicidal Activity, phytotoxicity rating (0-100), IPOHE",[11]; 63 g ai/ha,100
same,"Pre-emerge Herbicidal Activity, phytotoxicity rating (0-100), IPOHE",[11]; 250 g ai/ha,100
same,"Pre-emerge phytotoxicity rating (0-100), crop damage, CORN",[12]; 63 g ai/ha,85
same,"Pre-emerge phytotoxicity rating (0-100), crop damage, CORN",[12]; 250 g ai/ha,98
same,"Pre-emerge phytotoxicity rating (0-100), crop damage, RICE",[13]; 63 g ai/ha,90
same,"Pre-emerge phytotoxicity rating (0-100), crop damage, RICE",[13]; 250 g ai/ha,99
same,phytotoxicity rating SETVI,[14]; 63 g ai/ha,50
same,phytotoxicity rating SETVI,[14]; 250 g ai/ha,80
same,phytotoxicity rating ECHCG,[15]; 63 g ai/ha,30
same,phytotoxicity rating ECHCG,[15]; 250 g ai/ha,80
same,phytotoxicity rating CASOB,[16]; 63 g ai/ha,65
same,phytotoxicity rating CASOB,[16]; 250 g ai/ha,100
same,phytotoxicity rating AMARE,[17]; 63 g ai/ha,95
same,phytotoxicity rating AMARE,[17]; 250 g ai/ha,100
same,phytotoxicity rating CHEAL,[18]; 63 g ai/ha,90
same,phytotoxicity rating CHEAL,[18]; 250 g ai/ha,100
same,phytotoxicity rating DIGSA,[19]; 63 g ai/ha,0
same,phytotoxicity rating DIGSA,[19]; 250 g ai/ha,30
same,phytotoxicity rating SORHA,[20]; 63 g ai/ha,10
same,phytotoxicity rating SORHA,[20]; 250 g ai/ha,95
same,phytotoxicity rating AMBEL,[21]; 63 g ai/ha,70
same,phytotoxicity rating AMBEL,[21]; 250 g ai/ha,95
same,phytotoxicity rating ABUTH,[22]; 63 g ai/ha,100
same,phytotoxicity rating ABUTH,[22]; 250 g ai/ha,100
same,phytotoxicity rating IPOHE,[23]; 63 g ai/ha,100
same,phytotoxicity rating IPOHE,[23]; 250 g ai/ha,100
same,"Pre-emerge Herbicidal Activity, phytotoxicity rating (0-100), AMARE",[24]; 63 g ai/ha,100
same,"Pre-emerge Herbicidal Activity, phytotoxicity rating (0-100), AMARE",[24]; 250 g ai/ha,100
